Measured values: ChEMBL document CHEMBL5291721, “A preclinical secondary pharmacology resource illuminates target-adverse drug reaction associations of marketed drugs” (Nat Commun, 2023)

How the values were obtained:
[1] = biological target: 5-hydroxytryptamine receptor 2A (Homo sapiens, UniProt P28223)
[2] = biological target: T1, Alpha-2A adrenergic receptor (Homo sapiens, UniProt P08913)
T1 sequence (P08913 whole entry): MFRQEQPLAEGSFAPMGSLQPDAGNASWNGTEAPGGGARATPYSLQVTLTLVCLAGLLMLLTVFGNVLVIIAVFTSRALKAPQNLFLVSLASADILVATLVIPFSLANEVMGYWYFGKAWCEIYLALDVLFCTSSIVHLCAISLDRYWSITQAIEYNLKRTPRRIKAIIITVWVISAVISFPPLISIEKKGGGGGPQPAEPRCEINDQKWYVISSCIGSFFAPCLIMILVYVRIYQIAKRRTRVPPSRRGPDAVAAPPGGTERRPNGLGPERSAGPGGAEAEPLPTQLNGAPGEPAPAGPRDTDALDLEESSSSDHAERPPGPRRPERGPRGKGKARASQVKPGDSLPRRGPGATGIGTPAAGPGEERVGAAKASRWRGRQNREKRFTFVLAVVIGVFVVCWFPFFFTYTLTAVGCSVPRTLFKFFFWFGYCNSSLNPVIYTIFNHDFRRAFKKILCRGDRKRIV

Bile acid receptor = biological target: T2, Bile acid receptor (Homo sapiens, UniProt Q96RI1); assay type: functional
T2 sequence (Q96RI1 whole entry): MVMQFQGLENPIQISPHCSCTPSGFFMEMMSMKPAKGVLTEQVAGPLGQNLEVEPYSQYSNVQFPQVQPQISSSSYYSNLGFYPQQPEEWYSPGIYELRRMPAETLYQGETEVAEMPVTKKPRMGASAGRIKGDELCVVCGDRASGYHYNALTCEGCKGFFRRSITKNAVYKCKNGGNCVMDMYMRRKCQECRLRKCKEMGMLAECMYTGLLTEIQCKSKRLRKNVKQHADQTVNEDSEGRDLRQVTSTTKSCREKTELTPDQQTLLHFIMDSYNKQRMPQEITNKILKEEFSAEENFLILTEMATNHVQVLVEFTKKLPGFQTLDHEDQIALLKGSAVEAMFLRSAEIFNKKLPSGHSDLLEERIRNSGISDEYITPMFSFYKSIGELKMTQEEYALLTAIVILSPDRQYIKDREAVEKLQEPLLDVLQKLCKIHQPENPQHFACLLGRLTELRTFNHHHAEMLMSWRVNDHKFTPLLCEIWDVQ

[3] = biological target: T3, Peroxisome proliferator-activated receptor alpha (Homo sapiens, UniProt Q07869); assay type: functional
T3 sequence (Q07869 whole entry): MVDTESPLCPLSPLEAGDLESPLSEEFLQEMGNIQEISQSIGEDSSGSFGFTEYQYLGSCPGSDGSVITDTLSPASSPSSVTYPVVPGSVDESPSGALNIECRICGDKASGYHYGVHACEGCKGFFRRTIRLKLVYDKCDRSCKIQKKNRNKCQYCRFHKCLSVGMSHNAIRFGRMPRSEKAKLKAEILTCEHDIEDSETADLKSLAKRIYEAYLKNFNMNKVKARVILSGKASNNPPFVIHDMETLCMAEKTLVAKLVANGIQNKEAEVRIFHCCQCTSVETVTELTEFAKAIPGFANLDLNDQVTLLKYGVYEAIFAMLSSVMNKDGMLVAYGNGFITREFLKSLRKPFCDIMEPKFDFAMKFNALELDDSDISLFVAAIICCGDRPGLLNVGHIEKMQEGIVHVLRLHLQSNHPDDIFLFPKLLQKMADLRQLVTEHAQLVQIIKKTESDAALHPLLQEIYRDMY

[4] = biological target: T4, Retinoic acid receptor beta (Homo sapiens, UniProt P10826); assay type: functional, cell-based
T4 sequence (P10826 whole entry): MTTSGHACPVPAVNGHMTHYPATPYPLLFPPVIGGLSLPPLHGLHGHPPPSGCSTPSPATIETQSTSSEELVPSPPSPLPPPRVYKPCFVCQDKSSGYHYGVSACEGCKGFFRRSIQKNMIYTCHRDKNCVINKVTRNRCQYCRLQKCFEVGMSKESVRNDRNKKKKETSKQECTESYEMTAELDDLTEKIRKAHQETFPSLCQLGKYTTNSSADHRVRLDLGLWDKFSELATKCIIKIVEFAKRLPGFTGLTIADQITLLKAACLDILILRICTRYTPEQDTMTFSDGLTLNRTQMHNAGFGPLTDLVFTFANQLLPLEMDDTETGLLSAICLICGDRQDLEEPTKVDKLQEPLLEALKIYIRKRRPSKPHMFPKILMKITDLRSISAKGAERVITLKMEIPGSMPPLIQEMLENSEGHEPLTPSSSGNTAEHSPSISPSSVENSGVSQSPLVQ

[5] = biological target: T5, Retinoic acid receptor gamma (Homo sapiens, UniProt P13631); assay type: functional, cell-based
T5 sequence (P13631 whole entry): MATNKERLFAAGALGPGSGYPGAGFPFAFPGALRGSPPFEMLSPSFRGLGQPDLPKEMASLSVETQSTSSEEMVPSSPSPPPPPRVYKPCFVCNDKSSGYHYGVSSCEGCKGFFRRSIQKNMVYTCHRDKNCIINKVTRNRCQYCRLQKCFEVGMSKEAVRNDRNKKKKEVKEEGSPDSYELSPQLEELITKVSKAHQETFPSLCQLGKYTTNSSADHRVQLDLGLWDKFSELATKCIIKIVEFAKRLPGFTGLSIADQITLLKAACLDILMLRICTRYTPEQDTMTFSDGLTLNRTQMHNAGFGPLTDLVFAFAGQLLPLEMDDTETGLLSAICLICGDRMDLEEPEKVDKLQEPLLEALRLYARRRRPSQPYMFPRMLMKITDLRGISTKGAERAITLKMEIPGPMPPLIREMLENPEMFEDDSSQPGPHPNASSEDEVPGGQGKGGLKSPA

D(1A) dopamine receptor = D(1A) dopamine receptor (Homo sapiens, UniProt P21728)
Substance-K receptor = biological target: T6, Substance-K receptor (Homo sapiens, UniProt P21452)
T6 sequence (P21452 whole entry): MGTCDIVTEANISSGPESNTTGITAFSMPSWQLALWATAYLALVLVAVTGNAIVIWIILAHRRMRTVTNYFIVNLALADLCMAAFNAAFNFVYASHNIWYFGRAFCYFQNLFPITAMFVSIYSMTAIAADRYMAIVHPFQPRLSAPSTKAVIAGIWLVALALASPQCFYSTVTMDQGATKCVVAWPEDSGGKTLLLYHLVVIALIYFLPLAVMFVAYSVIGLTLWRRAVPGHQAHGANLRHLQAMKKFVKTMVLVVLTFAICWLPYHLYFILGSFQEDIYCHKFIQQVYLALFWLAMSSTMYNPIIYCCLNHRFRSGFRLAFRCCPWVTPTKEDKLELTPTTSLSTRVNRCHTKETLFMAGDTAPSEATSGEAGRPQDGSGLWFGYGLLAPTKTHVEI

[6] = biological target: 5-hydroxytryptamine receptor 5A (Homo sapiens, UniProt P47898)
Further: assay procedure not described here.

5-hydroxytryptamine receptor 5A, sequence (P47898 whole entry): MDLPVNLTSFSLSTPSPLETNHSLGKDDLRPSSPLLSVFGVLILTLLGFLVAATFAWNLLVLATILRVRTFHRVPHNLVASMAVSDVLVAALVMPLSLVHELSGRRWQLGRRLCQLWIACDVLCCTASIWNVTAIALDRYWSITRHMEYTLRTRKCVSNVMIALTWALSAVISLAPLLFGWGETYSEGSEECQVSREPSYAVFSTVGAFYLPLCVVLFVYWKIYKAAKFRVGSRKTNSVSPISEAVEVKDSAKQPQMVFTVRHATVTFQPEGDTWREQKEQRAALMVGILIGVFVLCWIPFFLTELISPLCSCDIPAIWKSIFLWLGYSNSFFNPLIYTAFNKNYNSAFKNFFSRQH
5-hydroxytryptamine receptor 2A, sequence (P28223 whole entry): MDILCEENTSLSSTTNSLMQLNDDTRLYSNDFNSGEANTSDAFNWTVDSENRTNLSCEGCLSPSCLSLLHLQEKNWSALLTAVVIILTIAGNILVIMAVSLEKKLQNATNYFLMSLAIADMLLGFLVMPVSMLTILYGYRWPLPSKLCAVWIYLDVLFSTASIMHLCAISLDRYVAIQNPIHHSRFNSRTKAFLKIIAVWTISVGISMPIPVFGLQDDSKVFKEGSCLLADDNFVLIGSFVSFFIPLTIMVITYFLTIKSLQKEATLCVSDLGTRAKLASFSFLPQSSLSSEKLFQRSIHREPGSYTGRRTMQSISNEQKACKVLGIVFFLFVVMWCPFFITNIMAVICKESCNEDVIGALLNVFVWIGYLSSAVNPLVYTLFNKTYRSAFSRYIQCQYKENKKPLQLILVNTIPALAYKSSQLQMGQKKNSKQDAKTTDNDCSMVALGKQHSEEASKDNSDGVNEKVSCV
D(1A) dopamine receptor, sequence (P21728 whole entry): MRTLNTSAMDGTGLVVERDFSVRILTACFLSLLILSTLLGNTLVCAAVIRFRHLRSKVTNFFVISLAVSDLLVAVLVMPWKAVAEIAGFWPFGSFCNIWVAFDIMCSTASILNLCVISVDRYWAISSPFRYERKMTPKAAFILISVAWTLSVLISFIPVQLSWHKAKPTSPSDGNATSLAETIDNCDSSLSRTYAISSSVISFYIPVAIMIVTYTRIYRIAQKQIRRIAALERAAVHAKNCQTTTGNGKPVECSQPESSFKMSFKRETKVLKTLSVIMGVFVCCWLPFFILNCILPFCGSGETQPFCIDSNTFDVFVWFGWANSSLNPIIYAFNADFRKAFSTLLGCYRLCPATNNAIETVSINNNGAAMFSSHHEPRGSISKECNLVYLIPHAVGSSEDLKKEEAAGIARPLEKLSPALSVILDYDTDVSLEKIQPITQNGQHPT

O=C1Nc2ccc(Cl)cc2[C@@](C#CC2CC2)(C(F)(F)F)O1 [EFAVIRENZ]
AC50 [1]: 3.79 µM

Cc1cn([C@H]2C=C[C@@H](CO)O2)c(=O)[nH]c1=O [STAVUDINE]
AC50 [2]: > 30 µM

CN1C(C(=O)Nc2ccccn2)=C(O)c2sc(Cl)cc2S1(=O)=O [LORNOXICAM]
AC50 (Bile acid receptor): > 30 µM
AC50 [3]: > 30 µM
AC50 [4]: > 30 µM
AC50 [5]: > 30 µM
AC50 [1]: > 10 µM

CCc1oc2ccccc2c1C(=O)c1cc(I)c(O)c(I)c1 [BENZIODARONE]
AC50 (D(1A) dopamine receptor): > 30 µM

Cc1c(C(=O)NN2CCCCC2)nn(-c2ccc(Cl)cc2Cl)c1-c1ccc(Cl)cc1 [RIMONABANT]
AC50 (Bile acid receptor): > 30 µM
AC50 [3]: > 30 µM
AC50 (Substance-K receptor): > 10 µM
AC50 [4]: > 30 µM
AC50 [6]: > 10 µM
AC50 [5]: > 30 µM
AC50 [1]: > 10 µM

CS(=O)(=O)c1ccc(C2=C(c3ccccc3)C(=O)OC2)cc1 [ROFECOXIB]
AC50 (Substance-K receptor): > 10 µM
AC50 [6]: > 10 µM

Cn1nnc2c(C(N)=O)ncn2c1=O [TEMOZOLOMIDE]
AC50 [1]: > 10 µM

CN(C)CCC(c1ccc(Cl)cc1)c1ccccn1 (centres undefined) [CHLORPHENIRAMINE]
AC50 (Substance-K receptor): > 10 µM
AC50 [6]: > 10 µM

CC[C@H]1OC(=O)[C@H](C)[C@@H](O[C@H]2C[C@@](C)(OC)[C@@H](O)[C@H](C)O2)[C@H](C)[C@@H](O[C@@H]2O[C@H](C)C[C@H](N(C)C)[C@H]2O)[C@](C)(O)C[C@@H](C)CN(C)[C@H](C)[C@@H](O)[C@]1(C)O [AZITHROMYCIN]
AC50 (D(1A) dopamine receptor): > 30 µM

O=C(OCC(O)CO)c1ccccc1Nc1ccnc2cc(Cl)ccc12 (centres undefined) [GLAFENINE]
AC50 [2]: > 30 µM

CCC1=C(C)CN(C(=O)NCCc2ccc(S(=O)(=O)NC(=O)N[C@H]3CC[C@H](C)CC3)cc2)C1=O [GLIMEPIRIDE]
AC50 [3]: > 30 µM

CC(=O)Nc1ccc(O)cc1 [ACETAMINOPHEN]
AC50 [3]: > 30 µM

NCC(CC(=O)O)c1ccc(Cl)cc1 (centres undefined) [BACLOFEN]
AC50 (Substance-K receptor): > 10 µM
AC50 [6]: > 10 µM

Cc1ccc(-c2cc(C(F)(F)F)nn2-c2ccc(S(N)(=O)=O)cc2)cc1 [CELECOXIB]
AC50 (Substance-K receptor): > 10 µM
AC50 [6]: > 10 µM

CCC(C)n1ncn(-c2ccc(N3CCN(c4ccc(OCC5COC(Cn6cncn6)(c6ccc(Cl)cc6Cl)O5)cc4)CC3)cc2)c1=O (centres undefined) [ITRACONAZOLE]
AC50 [3]: > 30 µM
